Test results from US20100104659A1, “BENZOPYRANOPYRAZOLES” (priority 2006, published 2010).

Tested on: RKO human colon adenocarcinoma cells (RKOp27 subclone), proliferating
Assay: Alamar Blue cell viability assay, RKO p27 uninduced (proliferating)
Conditions: RKOp27, 72 h, read-out: −log EC50 [mol/l] RKO p27 uninduced (proliferating), anti-proliferative/cytotoxic activity (converted)
Method: The anti-proliferative/cytotoxic activity of the compounds described herein can be tested on subclones of RKO human colon adenocarcinoma cells (Schmidt et al., Oncogene 19, 2423-2429; 2000) using the Alamar Blue cell viability assay (described in O'Brien et al. Eur J Biochem 267, 5421-5426, 2000). The compounds are dissolved as 10 mM solutions in DMSO and subsequently diluted in semi-logarithmic steps. DMSO dilutions are further diluted 1:100 into Dulbecco's modified Eagle's medium (DMEM) containing 10% fetal calf serum to a final concentration twice as much as the final concentration in the test. RKO subclones are seeded into 96 well flat bottom plates at a density of 4000 cells per well in a volume of 50 μl per well. 24 hours after seeding the 50 μl each of the compound dilutions in DMEM medium are added into each well of the 96 well plate. Each compound dilution is tested as triplicates. Wells containing untreated control cells are filled with 50 μl DMEM medium containing 1% DMSO. The cells are then incubated with the substances for 72 hours at 37° C. in a humidified atmosphere containing 5% carbon dioxide. To determine the viability of the cells, 10 μl of an Alamar Blue solution (Biosource) are added and the fluorescence is measured at an extinction of 544 nm and an emission of 590 nm. For the calculation of the cell viability the emission value from untreated cells is set as 100% viability and the emission rates of treated cells are set in relation to the values of untreated cells. Viabilities are expressed as % values. The Graphpad Prism program (GraphPad Software, Inc) is used for the calculation of EC50 values for anti-proliferative/cytotoxic activity out of the obtained dose-response curves.
Each compound dilution is tested as triplicates. Wells containing untreated control cells are filled with 50 μl DMEM medium containing 1% DMSO. The cells are then incubated with the substances for 72 hours at 37° C. in a humidified atmosphere containing 5% carbon dioxide. To determine the viability of the cells, 10 μl of an Alamar Blue solution (Biosource) are added and the fluorescence is measured at an extinction of 544 nm and an emission of 590 nm. For the calculation of the cell viability the emission value from untreated cells is set as 100% viability and the emission rates of treated cells are set in relation to the values of untreated cells. Viabilities are expressed as % values. The Graphpad Prism program is used for the calculation of EC50 values out of the obtained dose-response curves. Viability is compared of proliferating cells grown in the absence of the inducer Ponasterone A, versus viability of cells arrested by the expression of ectopic p27Kip1 induced by Ponasterone A.

SMILES	EC50 [nM]
CN(C)CCN(C)C(=O)N1N=C2c3cc(F)ccc3OC[C@@H]2[C@@H]1c1ccccc1 (racemic) [Example 19, (3RS,3aRS)-8-Fluoro-3-phenyl-3a,4-dihydro-3H-chromeno[4,3-c]pyrazole-2-carboxylic acid (2-dimethylamino-ethyl)-methyl-amide]	≤ 100
CN(CCCN)C(=O)N1N=C2c3cc(F)ccc3OC[C@@H]2[C@@H]1c1ccccc1 (racemic) [Example 20, (3RS,3aRS)-8-Fluoro-3-phenyl-3a,4-dihydro-3H-chromeno[4,3-c]pyrazole-2-carboxylic acid (3-amino-propyl)-methyl-amide]	100 to 1000
CNCCCN(C)C(=O)N1N=C2c3cc(F)ccc3OC[C@@H]2[C@@H]1c1ccccc1 (racemic) [Example 22, (3RS,3aRS)-8-Fluoro-3-phenyl-3a,4-dihydro-3H-chromeno[4,3-c]pyrazole-2-carboxylic acid methyl-(3-methylamino-propyl)-amide]	≤ 100
CNCCN(C)C(=O)N1N=C2c3cc(F)ccc3OC[C@@H]2[C@@H]1c1ccccc1 (racemic) [Example 23, (3RS,3aRS)-8-Fluoro-3-phenyl-3a,4-dihydro-3H-chromeno[4,3-c]pyrazole-2-carboxylic acid methyl-(2-methylamino-ethyl)-amide]	100 to 1000
CN(C(=O)N1N=C2c3cc(F)ccc3OC[C@@H]2[C@@H]1c1cccc(O)c1)C1CCNCC1 (racemic) [Example 27, (3RS,3aRS)-8-Fluoro-3-(3-hydroxy-phenyl)-3a,4-dihydro-3H-chromeno[4,3-c]pyrazole-2-carboxylic acid methyl-piperidin-4-yl-amide]	≤ 100
CN(CCN1CCCC1)C(=O)N1N=C2c3cc(F)ccc3OC[C@@H]2[C@@H]1c1ccccc1 (racemic) [Example 28, (3RS,3aRS)-8-Fluoro-3-phenyl-3a,4-dihydro-3H-chromeno[4,3-c]pyrazole-2-carboxylic acid methyl-(2-pyrrolidin-1-yl-ethyl)-amide]	100 to 1000
CC(=O)N1CCN(CCN(C)C(=O)N2N=C3c4cc(F)ccc4OC[C@@H]3[C@@H]2c2ccccc2)CC1 (racemic) [Example 29, (3RS,3aRS)-8-Fluoro-3-phenyl-3a,4-dihydro-3H-chromeno[4,3-c]pyrazole-2-carboxylic acid [2-(4-acetyl-piperazin-1-yl)-ethyl]methyl-amide]	100 to 1000
CN(CCCN1CCCC1)C(=O)N1N=C2c3cc(F)ccc3OC[C@H]2[C@H]1c1ccccc1 (racemic) [Example 34, (3SR,3aSR)-8-Fluoro-3-phenyl-3a,4-dihydro-3H-chromeno[4,3-c]pyrazole-2-carboxylic acid methyl-(3-pyrrolidin-1-yl-propyl)-amide]	≤ 100
CC(=O)N1CCN(CCCN(C)C(=O)N2N=C3c4cc(F)ccc4OC[C@H]3[C@H]2c2ccccc2)CC1 (racemic) [Example 35, (3SR,3aSR)-8-Fluoro-3-phenyl-3a,4-dihydro-3H-chromeno[4,3-c]pyrazole-2-carboxylic acid [3-(4-acetyl-piperazin-1-yl)-propyl]-methyl-amide]	100 to 1000
CN(CCN1CCCCC1)C(=O)N1N=C2c3cc(F)ccc3OC[C@H]2[C@H]1c1ccccc1 (racemic) [Example 36, (3SR,3aSR)-8-Fluoro-3-phenyl-3a,4-dihydro-3H-chromeno[4,3-c]pyrazole-2-carboxylic acid methyl-(2-piperidin-1-yl-ethyl)-amide]	100 to 1000
CN(CCCN1CCCCC1)C(=O)N1N=C2c3cc(F)ccc3OC[C@H]2[C@H]1c1ccccc1 (racemic) [Example 37, (3SR,3aSR)-8-Fluoro-3-phenyl-3a,4-dihydro-3H-chromeno[4,3-c]pyrazole-2-carboxylic acid methyl-(3-piperidin-1-yl-propyl)-amide]	≤ 100
CN(CCCN1CCC1)C(=O)N1N=C2c3cc(F)ccc3OC[C@H]2[C@H]1c1ccccc1 (racemic) [Example 38, (3SR,3aSR)-8-Fluoro-3-phenyl-3a,4-dihydro-3H-chromeno[4,3-c]pyrazole-2-carboxylic acid (3-azetidin-1-yl-propyl)-methyl-amide]	≤ 100
CC(C)NCCN(C)C(=O)N1N=C2c3cc(F)ccc3OC[C@H]2[C@H]1c1ccccc1 (racemic) [Example 39, (3SR,3aSR)-8-Fluoro-3-phenyl-3a,4-dihydro-3H-chromeno[4,3-c]pyrazole-2-carboxylic acid (2-isopropylamino-ethyl)-methyl-amide]	≤ 100
CN(CCNC(C)(C)C)C(=O)N1N=C2c3cc(F)ccc3OC[C@H]2[C@H]1c1ccccc1 (racemic) [Example 40, (3SR,3aSR)-8-Fluoro-3-phenyl-3a,4-dihydro-3H-chromeno[4,3-c]pyrazole-2-carboxylic acid (2-tert-butylamino-ethyl)-methyl-amide]	≤ 100
CC(C)CNCCN(C)C(=O)N1N=C2c3cc(F)ccc3OC[C@H]2[C@H]1c1ccccc1 (racemic) [Example 41, (3SR,3aSR)-8-Fluoro-3-phenyl-3a,4-dihydro-3H-chromeno[4,3-c]pyrazole-2-carboxylic acid (2-isobutylamino-ethyl)-methyl-amide]	≤ 100
CC(C)CNCCCN(C)C(=O)N1N=C2c3cc(F)ccc3OC[C@H]2[C@H]1c1ccccc1 (racemic) [Example 42, (3SR,3aSR)-8-Fluoro-3-phenyl-3a,4-dihydro-3H-chromeno[4,3-c]pyrazole-2-carboxylic acid (3-isobutylamino-propyl)-methyl-amide]	100 to 1000
CN(CCCNC(C)(C)C)C(=O)N1N=C2c3cc(F)ccc3OC[C@H]2[C@H]1c1ccccc1 (racemic) [Example 43, (3SR,3aSR)-8-Fluoro-3-phenyl-3a,4-dihydro-3H-chromeno[4,3-c]pyrazole-2-carboxylic acid (3-tert-butylamino-propyl)-methyl-amide]	100 to 1000
CN(CCNC1CCC1)C(=O)N1N=C2c3cc(F)ccc3OC[C@H]2[C@H]1c1ccccc1 (racemic) [Example 44, (3SR,3aSR)-8-Fluoro-3-phenyl-3a,4-dihydro-3H-chromeno[4,3-c]pyrazole-2-carboxylic acid (2-cyclobutylamino-ethyl)-methyl-amide]	≤ 100
CCN(CC)CCN(C)C(=O)N1N=C2c3cc(F)ccc3OC[C@H]2[C@H]1c1ccccc1 (racemic) [Example 45, (3SR,3aSR)-8-Fluoro-3-phenyl-3a,4-dihydro-3H-chromeno[4,3-c]pyrazole-2-carboxylic acid (2-diethylamino-ethyl)-methyl-amide]	≤ 100
CCN(CC)CCCN(C)C(=O)N1N=C2c3cc(F)ccc3OC[C@H]2[C@H]1c1ccccc1 (racemic) [Example 46, (3SR,3aSR)-8-Fluoro-3-phenyl-3a,4-dihydro-3H-chromeno[4,3-c]pyrazole-2-carboxylic acid (3-diethylamino-propyl)-methyl-amide]	≤ 100
COCCNCCN(C)C(=O)N1N=C2c3cc(F)ccc3OC[C@H]2[C@H]1c1ccccc1 (racemic) [Example 47, (3SR,3aSR)-8-Fluoro-3-phenyl-3a,4-dihydro-3H-chromeno[4,3-c]pyrazole-2-carboxylic acid [2-(2-methoxy-ethylamino)-ethyl]-methyl-amide]	100 to 1000
COCCNCCCN(C)C(=O)N1N=C2c3cc(F)ccc3OC[C@H]2[C@H]1c1ccccc1 (racemic) [Example 48, (3SR,3aSR)-8-Fluoro-3-phenyl-3a,4-dihydro-3H-chromeno[4,3-c]pyrazole-2-carboxylic acid [3-(2-methoxy-ethylamino)-propyl]-methyl-amide]	≤ 100
CN(CCO)CCN(C)C(=O)N1N=C2c3cc(F)ccc3OC[C@H]2[C@H]1c1ccccc1 (racemic) [Example 49, (3SR,3aSR)-8-Fluoro-3-phenyl-3a,4-dihydro-3H-chromeno[4,3-c]pyrazole-2-carboxylic acid {2-[(2-hydroxy-ethyl)-methyl-amino]-ethyl}-methyl-amide]	≤ 100
CN(CCO)CCCN(C)C(=O)N1N=C2c3cc(F)ccc3OC[C@H]2[C@H]1c1ccccc1 (racemic) [Example 50, (3SR,3aSR)-8-Fluoro-3-phenyl-3a,4-dihydro-3H-chromeno[4,3-c]pyrazole-2-carboxylic acid {3-[(2-hydroxy-ethyl)-methyl-amino]-propyl}-methyl-amide]	≤ 100
C=CCNCCN(C)C(=O)N1N=C2c3cc(F)ccc3OC[C@H]2[C@H]1c1ccccc1 (racemic) [Example 51, (3SR,3aSR)-8-Fluoro-3-phenyl-3a,4-dihydro-3H-chromeno[4,3-c]pyrazole-2-carboxylic acid (2-allylamino-ethyl)-methyl-amide]	100 to 1000
C=CCNCCCN(C)C(=O)N1N=C2c3cc(F)ccc3OC[C@H]2[C@H]1c1ccccc1 (racemic) [Example 52, (3SR,3aSR)-8-Fluoro-3-phenyl-3a,4-dihydro-3H-chromeno[4,3-c]pyrazole-2-carboxylic acid (3-allylamino-propyl)-methyl-amide]	100 to 1000
CCN(C)CCN(C)C(=O)N1N=C2c3cc(F)ccc3OC[C@H]2[C@H]1c1ccccc1 (racemic) [Example 53, (3SR,3aSR)-8-Fluoro-3-phenyl-3a,4-dihydro-3H-chromeno[4,3-c]pyrazole-2-carboxylic acid [2-(ethyl-methyl-amino)-ethyl]-methyl-amide]	≤ 100
CN(CCCNCC1CC1)C(=O)N1N=C2c3cc(F)ccc3OC[C@H]2[C@H]1c1ccccc1 (racemic) [Example 54, (3SR,3aSR)-8-Fluoro-3-phenyl-3a,4-dihydro-3H-chromeno[4,3-c]pyrazole-2-carboxylic acid [3-(cyclopropylmethyl-amino)-propyl]-methyl-amide]	100 to 1000
CCN(C)CCCN(C)C(=O)N1N=C2c3cc(F)ccc3OC[C@H]2[C@H]1c1ccccc1 (racemic) [Example 55, (3SR,3aSR)-8-Fluoro-3-phenyl-3a,4-dihydro-3H-chromeno[4,3-c]pyrazole-2-carboxylic acid [3-(ethyl-methyl-amino)-propyl]-methyl-amide]	≤ 100
